Measured values taken from PMC10294627, “PhoPQ Regulates Quinolone and Cephalosporin Resistance Formation in Salmonella Enteritidis at the Transcriptional Level” (mBio, 2023).
Like-named read-outs stand apart in the source and are kept apart here.

Key:
[1] = molecular target: T1, PhoQ^SD (periplasmic sensor domain of PhoQ) (Salmonella enterica, UniProt P0DM80); test: differential scanning calorimetry; type: binding; settings: 20 μM protein, 100 μM ligand, 10 mM sodium phosphate pH 7.4; Tm of complex, apo Tm 52.29 °C
T1 construct: periplasmic sensor domain (residues 45-188 as aligned; exact construct borders in supplement), His-tagged, pET28a, E. coli BL21, Ni-NTA purified, dimer by native-PAGE

[2] = molecular target: T1, PhoQ^SD (periplasmic sensor domain of PhoQ); test: microscale thermophoresis; type: binding
From the text: microscale thermophoresis on PhoQ^SD (periplasmic sensor domain of PhoQ) | NAL, CAZ, or ofloxacin, we also obtained well-fitted curves

His-tagged PhoQ = molecular target: T2, His-tagged PhoQ (Salmonella enterica, UniProt P0DM80); test: Phos-tag gel autophosphorylation, membrane extract, anti-His blot; type: biochemical; settings: with ATP, in vitro
T2 construct: 6xHis-tagged PhoQ, no truncation stated, in membrane extracts of E. coli DH5alpha; anti-His read-out; dimeric histidine kinase

[3] = molecular target: periplasmic sensor domain of PhoQ (PhoQ^SD), His-tagged, S. Enteritidis (Salmonella Enteritidis); test: native gel or EMSA; native-PAGE of PhoQ^SD expressed in E. coli BL21; data not shown

**Q.** CCn1cc(C(=O)O)c(=O)c2ccc(C)nc21 [nalidixic acid] was tested. Which Tm [1] did it give?
**A.** 51.00 °C

**Q.** What about the Kd [2] of the same compound?
**A.** 24.7 ± 4.3 µM

**Q.** CC1COc2c(N3CCN(C)CC3)c(F)cc3c(=O)c(C(=O)O)cn1c23 (stereo not drawn) [ofloxacin] was tested. Which Kd ([2]; read-out: Kd) did it give?
**A.** 33.1 ± 28.3 µM

**Q.** CO/N=C(\C(=O)N[C@@H]1C(=O)N2C(C(=O)[O-])=C(C[N+]3(C)CCCC3)CS[C@H]12)c1csc(N)n1 [cefepime] was tested. Which “Phos-tag gel autophosphorylation, membrane extract, anti-His blot” value (shortened to “Phos-tag gel autophosphorylation”) (His-tagged PhoQ) did it give?
**A.** cephalosporins (ceftazidime, ceftriaxone, and cefepime) or ATP

**Q.** For “periplasmic sensor domain of PhoQ (PhoQ^SD), His-tagged, S. Enteritidis (domain or fragment)”, which stoichiometry N [3] is on record?
**A.** 2

**Q.** How did the “Phos-tag gel autophosphorylation” value (His-tagged PhoQ) turn out when O=C(O)c1cn(C2CC2)c2cc(N3CCNCC3)c(F)cc2c1=O [ciprofloxacin] was run?
**A.** treated with quinolones (nalidixic acid, ciprofloxacin, and ofloxacin)

**Q.** CC(C)(O/N=C(\C(=O)N[C@@H]1C(=O)N2C(C(=O)[O-])=C(C[n+]3ccccc3)CS[C@H]12)c1csc(N)n1)C(=O)O [ceftazidime] was tested. Which Tm [1] did it give?
**A.** 50.54 °C

**Q.** And the Kd [2]?
**A.** 25.6 ± 13.4 µM

**Q.** CO/N=C(\C(=O)N[C@@H]1C(=O)N2C(C(=O)O)=C(CSc3nc(=O)c(=O)[nH]n3C)CS[C@H]12)c1csc(N)n1 [ceftriaxone] was tested. Which “Phos-tag gel autophosphorylation” value (His-tagged PhoQ) did it give?
**A.** cephalosporins (ceftazidime, ceftriaxone, and cefepime) or ATP
